Measured values taken from patent US5225528A, “Cyclic hexapeptide oxytocin antagonists” (priority 1990, dated 1993).
Counter-ions that a name gives are not always drawn. Like-named read-outs stand apart in the source and are kept apart here. Numbered stars: 1 amine (or outer) side, 2 acyl side, 3 side chain; on linkers, the order of the positions; unused ones are H or OH. Square brackets hold non-standard residues; d marks the D form. Peptide text beside a SMILES is read from it. * marks the point of attachment. dPip(4-aza,4-Cbz) = O=C(O)[C@H]1CN(C(=O)OCc2ccccc2)CCN1; X2 = O=C(OCc1ccccc1)N1CCN([*:1])[C@H](C(=O)[*:2])C1; X10 = O=C(O)CN1CCN([*:1])[C@H](C(=O)[*:2])C1; X8 = Cn1c[n+](C)cc1C[C@@H](N[*:1])C(=O)[*:2]; dPiz(1,6-dehydro) = O=C(O)[C@H]1CCC=NN1; d2Nal = N[C@H](Cc1ccc2ccccc2c1)C(=O)O; Pip(4-aza) = O=C(O)[C@@H]1CNCCN1; dNMeF = CN[C@H](Cc1ccccc1)C(=O)O; dOrn = NCCC[C@@H](N)C(=O)O; Pip = O=C(O)[C@@H]1CCCCN1; dPip = O=C(O)[C@H]1CCCCN1; Orn = NCCC[C@H](N)C(=O)O; Cbz = O=C(OCc1ccccc1)*

Assays:
uterine OT receptors = biological target: T1, uterine OT receptors (Rattus norvegicus, UniProt P70536); test: [^3 H]OT binding to uterine OT receptors, crude membrane preparation of uteri from DES-treated rats; conditions: for inhibition at 0.1 µM: 1 h, @ 100 (nM), read-out: [^3 H]OT: percent inhibition of radioligand at the given concentration
T1 construct: from tissue; host or cells: uterus of DES-treated rats, crude membranes
T1 sequence (P70536 1-388): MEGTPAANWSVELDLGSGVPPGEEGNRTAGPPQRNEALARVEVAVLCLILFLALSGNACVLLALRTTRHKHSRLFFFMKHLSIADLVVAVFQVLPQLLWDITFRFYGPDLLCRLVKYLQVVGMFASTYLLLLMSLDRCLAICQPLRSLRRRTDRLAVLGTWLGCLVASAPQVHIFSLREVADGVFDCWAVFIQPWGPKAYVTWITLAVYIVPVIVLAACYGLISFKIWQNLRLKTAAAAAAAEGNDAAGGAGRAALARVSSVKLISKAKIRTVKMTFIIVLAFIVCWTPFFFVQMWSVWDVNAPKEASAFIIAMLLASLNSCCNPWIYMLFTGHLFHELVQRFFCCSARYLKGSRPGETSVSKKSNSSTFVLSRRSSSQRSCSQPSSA
Description: Competition studies were conducted at equilibrium (60 minutes; 22° C.) using 1 nM [^3 H]OT in the following assay buffer: 50 mM Tris-HCl, 5 mM MgCl2, and 0.1% BSA, pH 7.4.

AVP-V1 sites = biological target: T2, AVP-V1 sites (Rattus norvegicus, UniProt P30560); test: [^3 H]AVP binding to crude membrane preparation of male rat liver (AVP-V1 sites)
T2 construct: crude membrane preparation of male rat liver (AVP-V1 sites); from tissue; host or cells: male rat liver, crude membranes
Description: (§1) Nonspecific binding (5-10% of the total binding) was determined using 10 μM unlabeled AVP, and the binding reaction was terminated by filtration as described above for the [^3 H]OT binding assay.

AVP-V2 sites = biological target: T3, AVP-V2 sites (Rattus norvegicus, UniProt Q00788); test: [^3 H]AVP binding to crude membrane preparation of male rat kidney medulla (AVP-V2 sites)
T3 construct: male rat liver (AVP-V1 sites) or kidney medulla (AVP-V2 sites); from tissue; host or cells: male rat kidney medulla, crude membranes
Description: as §1

[1] = rat uterus membranes, 1 nM [^3 H]OT, read-out: Receptor Binding Results IC50 (nM) [^3 H]OT
[2] = Receptor Binding Results IC50 (nM) [^3 H]-AVP-V1
[3] = rat kidney medulla membranes, 2 nM [^3 H]AVP, read-out: Receptor Binding Results IC50 (nM) [^3 H]-AVP-V2
[4] = Receptor Binding Results IC50 (nM) [^3 H]-AVP-V2
[5] = read-out: Receptor Binding Results IC50 (nM) [^3 H]-AVP-V1
[6] = read-out: Receptor Binding Results IC50 (nM) [^3 H]-AVP-V2
[7] = Receptor Binding Results IC50 (nM) [^3 H]OT

T2 sequence (P30560 whole entry): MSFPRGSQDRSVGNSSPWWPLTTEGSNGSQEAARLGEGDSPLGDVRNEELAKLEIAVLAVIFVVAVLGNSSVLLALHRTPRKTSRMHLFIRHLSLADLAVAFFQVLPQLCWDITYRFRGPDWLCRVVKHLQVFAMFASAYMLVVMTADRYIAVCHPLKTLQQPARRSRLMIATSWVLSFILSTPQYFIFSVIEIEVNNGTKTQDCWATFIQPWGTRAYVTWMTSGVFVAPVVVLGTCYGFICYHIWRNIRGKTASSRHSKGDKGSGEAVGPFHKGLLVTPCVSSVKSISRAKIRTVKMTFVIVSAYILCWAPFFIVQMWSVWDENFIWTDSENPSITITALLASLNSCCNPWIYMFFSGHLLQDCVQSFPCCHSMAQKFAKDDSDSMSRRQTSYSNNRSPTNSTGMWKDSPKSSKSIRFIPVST
T3 sequence (Q00788 whole entry): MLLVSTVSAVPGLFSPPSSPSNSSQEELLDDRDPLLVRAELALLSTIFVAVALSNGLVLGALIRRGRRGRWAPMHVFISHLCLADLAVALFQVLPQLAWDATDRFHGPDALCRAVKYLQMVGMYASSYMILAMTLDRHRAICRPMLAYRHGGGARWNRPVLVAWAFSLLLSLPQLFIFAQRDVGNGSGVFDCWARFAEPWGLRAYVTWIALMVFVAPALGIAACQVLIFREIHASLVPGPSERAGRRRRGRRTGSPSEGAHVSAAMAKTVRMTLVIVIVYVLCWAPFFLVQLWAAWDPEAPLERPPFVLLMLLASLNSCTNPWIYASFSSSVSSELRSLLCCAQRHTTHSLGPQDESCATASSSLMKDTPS

Molecule | IC50 (uterine OT receptors; [1]) [nM] | IC50 (AVP-V1 sites; [2]) [nM] | IC50 (AVP-V2 sites; [3]) [nM] | other results
CC[C@H](C)[C@@H]1NC(=O)[C@@H](Cc2ccccc2)NC(=O)[C@@H]2CCCN2C(=O)[C@@H](Cc2ccccc2)N(C)C(=O)[C@H](CC(=O)O)NC(=O)[C@H]2CCCCN2C1=O [Example 116, c-[D-Phenylalanyl-L-isoleucyl-D-pipecolyl-L-aspartyl-N-methyl-D-phenylalanyl-L-prolyl]] (cyclo(D[dNMeF]P[dF]I[dPip])) | 1450 | > 10000 | > 10000 | –
c-[D-2-Trytophanyl-L-isoleucinyl-D-pipecolyl-L-piperazin-2-yl-(4-Cbz)-D-histidinyl(BOM)-L-prolyl] [Example 175] | – | – | – | [^3 H]OT: percent inhibition of radioligand at the given concentration (uterine OT receptors; @ 1,000 (nM)): 79%; [^3 H]-AVP-V1: percent inhibition of radioligand at the given concentration (AVP-V1 sites; @ 10,000 (nM)): 54%; [^3 H]-AVP-V2: percent inhibition of radioligand at the given concentration (AVP-V2 sites; @ 10,000 (nM)): 81%
CC[C@H](C)[C@@H]1NC(=O)[C@@H](Cc2ccccc2)NC(=O)[C@@H]2CCCN2C(=O)[C@@H](Cc2c[nH]cn2)NC(=O)[C@H]2CN(C(=O)OCc3ccccc3)CCN2C(=O)[C@H]2CCCCN2C1=O [Example 82, c-[D-Phenylalanyl-L-isoleucinyl-D-pipecolyl-D-piperazin-2-yl(4Cbz)-D-histidinyl-L-prolyl]] (cyclo(I[dPip][dPip(4-aza,4-Cbz)][dH]P[dF])) | 73 | 10000 | 10000 | –
CC[C@H](C)[C@@H]1NC(=O)[C@@H](Cc2ccccc2)NC(=O)[C@@H]2CCCN2C(=O)[C@@H](CCCN)NC(=O)[C@@H]2CCCCN2C(=O)[C@H]2CCCCN2C1=O [Example 39, Cyclo[D-phenylalanyl-L-isoleucyl-D-pipecolyl-L-pipecolyl-D-ornithyl-L-prolyl]] (cyclo(I[dPip][Pip][dOrn]P[dF])) | – | > 1000 | – | inhibition at 0.1 µM (uterine OT receptors): 28%; IC50 (AVP-V2 sites; [4]): > 10000 nM
CC[C@H](C)[C@@H]1NC(=O)[C@@H](Cc2ccccc2)NC(=O)[C@@H]2CCCN2C(=O)[C@@H](Cc2ccccc2)NC(=O)[C@H](CC(N)=O)NC(=O)[C@@H](CCC(N)=O)NC1=O [Example 102] (cyclo([dF]I[dQ]N[dF]P)) | > 10000 | > 10000 | > 10000 | –
CC[C@H](C)[C@@H]1NC(=O)[C@@H](Cc2ccccc2)NC(=O)[C@@H]2CCCN2C(=O)[C@@H](Cc2ccccc2)NC(=O)[C@@H]2CN(C(=O)OCc3ccccc3)CCN2C(=O)[C@H]2CN(C(=O)OCc3ccccc3)CCN2C1=O [Example 79, c-[D-Phenylalanyl-L-isoleucinyl-D-piperazin-2-yl (4-Cbz)-L-piperazin-2-yl (4-Cbz)-D-phenylalanyl-L-prolyl]] (cyclo(I[dPip(4-aza,4-Cbz)][X2][dF]P[dF])) | 1700 | > 10000 | 10000 | –
CC[C@H](C)[C@@H]1NC(=O)[C@@H](Cc2ccccc2)NC(=O)[C@@H]2CCCN2C(=O)[C@@H](Cc2ccccc2)N(C)C(=O)[C@H](CCCNC(=N)N)NC(=O)[C@H]2CCC=NN2C1=O [Example 131, c-[D-phenylalanyl-L-isoleucyl-D-Δ-piperazyl-L-arginyl-D-(Nα-methyl)-phenylalanyl-L-prolyl]trifluoroacetate salt] (cyclo(I[dPiz(1,6-dehydro)]R[dNMeF]P[dF])) | 7.2 | – | – | IC50 (AVP-V1 sites; [5]): 400 nM; IC50 (AVP-V2 sites; [6]): 500 nM
CC[C@H](C)[C@@H]1NC(=O)[C@@H](Cc2ccccc2)NC(=O)[C@@H]2CCCCN2C(=O)[C@@H](Cc2ccccc2)N(C)C(=O)[C@@H]2CCCCN2C(=O)[C@H]2CCCCN2C1=O [Example 108, c-[D-phenylalanyl-L-isoleucyl-D-pipecolyl-L-pipecolyl-N-methyl-D-phenylalanyl-L-pipecolyl]] (cyclo(I[dPip][Pip][dNMeF][Pip][dF])) | – | 10000 | 10000 | IC50 (uterine OT receptors; [7]): 655 nM
CC[C@H](C)[C@@H]1NC(=O)[C@@H](Cc2c[nH]c3ccccc23)NC(=O)[C@@H]2CCCN2C(=O)[C@@H](Cc2c[n+](C)cn2C)NC(=O)[C@@H]2CCCCN2C(=O)[C@H]2CCCCN2C1=O [Example 18, Cyclo[D-tryptophanyl-L-isoleucyl-D-pipecolyl-L-pipecolyl-D-[im-(CH3)2]^+ histidyl-L-prolyl] trifluoroacetate] (cyclo(I[dPip][Pip][X8]P[dW])) | 450 | > 1000 | > 10000 | –
CN1C(=O)[C@@H]2CCCCN2C(=O)[C@H]2CCCCN2C(=O)[C@H](Cc2ccccc2)NC(=O)[C@@H](Cc2c[nH]c3ccccc23)NC(=O)[C@@H]2CCCN2C(=O)[C@H]1Cc1ccccc1 [Example 31, Cyclo[D-Tryptophanyl-L-phenylalanyl-D-pipecolyl-L-pipecolyl-D-(N^α -methyl)phenylalanyl-L-prolyl]] (cyclo(F[dPip][Pip][dNMeF]P[dW])) | 100 | > 10000 | – | IC50 (AVP-V2 sites; [4]): > 1000 nM
CC[C@H](C)[C@@H]1NC(=O)[C@@H](Cc2ccc3ccccc3c2)NC(=O)[C@@H]2CCCN2C(=O)[C@@H](Cc2ccccc2)N(C)C(=O)[C@@H]2CNCCN2C(=O)[C@H]2CCCCN2C1=O [Example 171, c-[D-2-Naphthylalanyl-L-isoleucinyl-D-pipecolyl-L-piperazin-2-yl-D-(N^α -methyl)phenylalanyl-L-prolyl]] (cyclo(I[dPip][Pip(4-aza)][dNMeF]P[d2Nal])) | 3.9 | – | – | IC50 (AVP-V1 sites; [5]): 15000 nM; IC50 (AVP-V2 sites; [6]): 335 nM
CC[C@H](C)[C@@H]1NC(=O)[C@@H](Cc2c[nH]c3ccccc23)NC(=O)[C@@H]2CCCN2C(=O)[C@@H](Cc2ccccc2)N(C)C(=O)[C@@H]2CN(CC(=O)O)CCN2C(=O)[C@H]2CCCCN2C1=O [Example 181, c-[D-Tryptophanyl-L-isoleucinyl-D-pipecolyl-L-piperazin-2-yl(4-carboxymethyl)-D-(N^α -Me)phenylalanyl-L-prolyl]] (cyclo(I[dPip][X10][dNMeF]P[dW])) | 100 | > 10000 | – | inhibition at 10 µM (AVP-V2 sites; 0.5 h, @ 10,000 (nM), read-out: [^3 H]-AVP-V2: percent inhibition of radioligand at the given concentration): 73%
CC[C@H](C)[C@@H]1NC(=O)[C@@H](Cc2c[nH]c3ccccc23)NC(=O)[C@@H]2CCCN2C(=O)[C@@H](Cc2c[nH]c3ccccc23)NC(=O)[C@H](CCCNC(=O)OCc2ccccc2)NC(=O)[C@H]2CCCCN2C1=O [Example 36, Cyclo[D-tryptophanyl-L-isoleucyl-D-pipecolyl-L-(carbobenzyloxy)ornithinyl-D-trytophanyl-L-prolyl]] (cyclo(I[dPip][Orn](Cbz)[dW]P[dW])) | > 100 | > 10000 | 10000 | –
CC[C@H](C)[C@@H]1NC(=O)[C@@H](Cc2c[nH]c3ccccc23)NC(=O)[C@@H]2CCCN2C(=O)[C@@H](Cc2c[nH]c3ccccc23)NC(=O)[C@H](CCCCNC(=O)OCc2ccccc2)NC(=O)[C@H]2CCCCN2C1=O [Example 29, Cyclo[D-tryptophanyl-L-isoleucyl-D-pipecolyl-L-(carbobenzloxy)lysyl-D-tryptophanyl-L-prolyl]] (cyclo(I[dPip]K(Cbz)[dW]P[dW])) | – | > 10000 | > 10000 | inhibition at 0.1 µM (uterine OT receptors): 32%
CC[C@H](C)[C@@H]1NC(=O)[C@@H](Cc2ccc3ccccc3c2)NC(=O)[C@@H]2CCCN2C(=O)[C@@H](Cc2c[nH]cn2)NC(=O)[C@@H]2CNCCN2C(=O)[C@H]2CCCCN2C1=O [Example 159, c-[D-2-Naphthylalanyl-L-isoleucyl-D-pipecolyl-L-piperazin-2-yl-D-histidyl-L-prolyl]] (cyclo(I[dPip][Pip(4-aza)][dH]P[d2Nal])) | 1.8 | – | – | IC50 (AVP-V1 sites; [5]): 4650 nM; IC50 (AVP-V2 sites; [6]): 690 nM
CC[C@H](C)[C@@H]1NC(=O)[C@@H](Cc2ccccc2)NC(=O)[C@@H]2CCCN2C(=O)[C@@H](Cc2ccccc2)NC(=O)[C@@H]2CNCCN2C(=O)[C@H]2CCCN2C1=O [Example 164, c-[D-Phenylalanyl-L-isoleucinyl-D-prolyl-L-piperazin-2-yl-D-phenylalanyl-L-prolyl]] (cyclo(I[dP][Pip(4-aza)][dF]P[dF])) | 1300 | 10000 | > 10000 | –
CC[C@H](C)[C@@H]1NC(=O)[C@@H](Cc2ccccc2)NC(=O)[C@@H]2CCCN2C(=O)[C@@H](Cc2ccccc2)N(C)C(=O)[C@@H]2CCCN2C(=O)[C@H]2CCCCN2C1=O [Example 7, Cyclo[D-phenylalanyl-L-isolelucyl-D-pipecolyl-L-propyl-D-(N^α Methyl)phenyl-L-prolyl]] (cyclo(I[dPip]P[dNMeF]P[dF])) | – | > 10000 | > 10000 | IC50 (uterine OT receptors; [7]): 350 nM
